The values below come from patent EP0791056B1, “LIPID-CLEAVAGE ENZYME COMPLEX” (priority 1994, dated 1996).

In one data set the test system is stimulierten humanen PBL. Nature of the data set: Intracellular decay kinetics of AZT and AZT nucleotides after removal of the incubation solution. It is filed as in vitro ADME, human. The protocol: Stimulierte humane PBL wurden für 24 h mit 0.3 µg AZT/ml bzw. 10 µg AZT-DMDOPE/ml inkubiert. Anschließend wurden 1 x 10^7 Zellen in Gewebekulturflaschen (50 ml/25 cm^2) mit RPMI 1640 Komplettmedium I überführt. Nach 1, 3, 6, 24 und 48 h wurde AZT und die AZT-Nukleotide aus der zellulären Matrix extrahiert. Nach einer Behandlung mit alkalischer Phosphatase wurde mit Hilfe des Radioimmuno-Assays die Konzentration an AZT bestimmt.

The next data set concerns P3X63Ag8.653-Zellen. Nature of the data set: Intracellular concentrations of AZT and AZT nucleotides (radioimmunoassay) in thymidine kinase deficient cells. The following applies: for maximale Konzentrationen an AZT und AZT-Nukleotiden: after 6 h; for maximale Konzentrationen, nur AZT erfaßt: after 24 h, without alkaline phosphatase; for Substanzspiegel an phosphoryliertem AZT: comparison before/after alkaline phosphatase. It is filed as in vitro ADME. An excerpt:
Die Bestimmung der intrazellulären Konzentrationen an AZT und AZT-Nukleotiden in Thymidikinasedefizienten Zellen sollte weitere Erkenntnisse über die intrazelluläre Spaltung der Testsubstanz AZT-DMDOPE liefern. Intrazelluläres AZT kann in diesen Zellen aufgrund eines Mangels an Thymidin-Kinase (TK) nicht in ATZ-MP und somit in das therapeutisch wirksame AZT-TP überführt werden. Die Bestimmung der intrazellulären Konzentrationen an AZT und AZT-Nukleotiden nach Inkubation mit AZT-DMDOPE könnte somit einen weiteren Hinweis auf die Spaltung der Teststubstanz geben.
Hierfür wurden in Gewebekulturschalen (60 x 15 mm) 1 x 10^7 Zellen in RPMI 1640 Komplettmedium I mit 0.03 bzw. 0.3 µg AZT/ml und 1 bzw. 10 µg AZT-DMDOPE/ml über 6, 24 und 48 h inkubiert. Nach Extraktion von AZT und der AZT-Nukleotide und einer Behandlung mit alkalischer Phosphatase wurde die Konzentration an AZT mit Hilfe des Radioimmuno-Assays bestimmt.

Another data set relates to CEM-SS-Zellen. The data set is described as follows: Enzymatic cleavage of [14C]-AZT-DMDOPE by cell homogenates, TLC of metabolites. It is filed as in vitro ADME. The following applies: Zellhomogenate von CEM-SS-Zellen. How it is done:
Die Spaltung von AZT-DMDOPE wurde mit Hilfe eines Enzym-Assays mit [^14C]-AZT-DMDOPE und AZT-DMDOPE als Substrat untersucht. Als Enzymquelle wurden zunächst Zellhomogenate von CEM-SS-Zellen und humanen PBL verwendet. Tab.
Zur Herstellung der Zellhomogenate wurden Zellsuspensionen mit einer Dichte von 5 x10^7 Zellen/ml 50 mM Tris (pH 7.4) im Glashomogenisator mechanisch aufgeschlossen. Der Zellaufschluß wurde hierbei im Umkehr-Phasenkontrast-Mikroskop optisch kontrolliert. Tab.
Zunächst wurde 1 ml dieses Zellhomogenales in dem Enzym-Assay ohne vorherige Bestimmung der Proteinkonzentration eingesetzt.
Zur Gewährleistung einer Substratsättigung wurden weitere 50 nmol der nichtradioaktiv markierten Verbindung hinzugefügt. [^14C]-AZT-DMDOPE trägt die radioaktive Markierung im Thioetherlipidteil und erlaubt somit eine eindeutige Identifikation der potentiellen Metabolits [^14-C]DMDOP.
Die Ansätze wurden für 1, 3, 6 und 24 h im Wasserbad bei 37 °C inkubiert. Als Vergleich wurde ein Ansatz ohne Zugabe von Zellhomogenat mitgeführt. Anschließend wurden die Spaltprodukte mit Diethylether:2-Propanol (9:1, v/v) extrahiert und dünnschichtchromatographisch im IBA- und IBAE-System analysiert (Abb. 18). Nach Trennung der Substanzen wurde zur Detektion der radioaktiv markierten Substanzen die DC-Platte 15 min im Radio-DC-Analysator gemessen. […]

Another data set concerns LCE. The data set is described as follows: Substrate cleavage by LCE. Type of data set: biochemical. The following applies: cleavage to drug monophosphate and DMDOP. An excerpt:
Das Enzym wird vorzugsweise aus humanen peripheren Blutleukozyten, die zuvor durch PHA oder andere Stimulantien (z.B. Cytokine, etc.) aktiviert wurden, oder aus murinen Nierenzellen isoliert. Aus vorläufigen Untersuchungen ergibt sich ein Molekulargewicht von etwa 120.000 - 160.000, bestimmt nach der SDS-PAGE-Methode. Zellen, die dieses Enzym enthalten, können auf einfache Weise dadurch identifiziert werden, indem sie unter geeigneten Testbedingungen mit einer Lösung von AZT-DMDOPE oder FLT-DMDOPE versetzt werden und die Spaltprodukte AZT-monophosphat bzw. FLT-monophosphat oder DMDOP nachgewiesen werden, beispielsweise durch dünnschichtchromatographische Methoden oder im Fall von radioaktiv markierten Proben durch szintillatographische Verfahren (siehe Beispiele 4 - 7). Im Gegensatz zu den biochemisch verwandten Phospholipasen C oder -D wird das LCE nicht durch bekannte Inhibitoren von Phospholipase C oder -D gehemmt oder durch Aktivatoren von Phospholipase C oder -D aktiviert. Im Gegensatz zu Phospholipase C wird das Enzym durch die Substanz D 609 (Tricyclodecan-9-yl-xanthogenat; C11H15OS2 K) aktiviert, während D 609 Phospholipase C inhibiert.

Turning to `CCCCCCCCCCCCSCC(COP(=O)(O)OC[C@H]1O[C@@H](n2cc(C)c(=O)[nH]c2=O)C[C@@H]1N=[N+]=[N-])OCCCCCCCCCC` (some centres unmarked) [AZT-DMDOPE, (3'-Desoxy-3'-azidothymidin)-5'-phosphorsäure-(3-dodecyl-mercapto-2-decyloxy)-propylester], in the data set on stimulierten humanen PBL (10 µg AZT-DMDOPE/ml vs. 0.3 µg AZT/ml), the “um Faktor höhere Konzentration an phosphoryliertem AZT im Vergleich zu äquipotenter Konzentration an AZT” value stood at 4.5. In addition, the “konstanter Wert der intrazellulären Konzentrationen an AZT und AZT-Nukleotiden” value in the data set on stimulierten humanen PBL (24 h preincubation with 10 µg AZT-DMDOPE/ml, reached after 3 h, constant over 48 h) came to 1.80 ng/10^6 Zellen. Also, in the data set on P3X63Ag8.653-Zellen (1 µg AZT-DMDOPE/ml), the “maximale Konzentrationen an AZT und AZT-Nukleotiden” value came to 0.55 ng/10^6 Zellen; the “maximale Konzentrationen, nur AZT erfaßt” value amounted to 0.05 ng/mL; the “Substanzspiegel an phosphoryliertem AZT” value is given as 0.48 ng/10^6 Zellen. Besides, in the data set with P3X63Ag8.653-Zellen (10 µg AZT-DMDOPE/ml), the “maximale Konzentrationen an AZT und AZT-Nukleotiden” value was 4.40 ng/10^6 Zellen; the “maximale Konzentrationen, nur AZT erfaßt” value was 1.10 ng/mL; the “Substanzspiegel an phosphoryliertem AZT” value is recorded as 2.42 ng/10^6 Zellen. The “intrazelluläre Konzentrationen an AZT und AZT-Nukleotiden im Vergleich zu äquipotenten Konzentrationen an AZT” value in the data set on P3X63Ag8.653-Zellen (6, 24 and 48 h incubation) is listed as “deutlich höher”. Also, the “Metabolisierung von AZT-DMDOPE” value in the data set on CEM-SS-Zellen is given as “zu DMDOP und AZT-MP metabolisiert”. The “Spaltung durch LCE” value in the data set with LCE is on record as “spaltet”.
